In US5807754A, “Combinatorial synthesis and high-throughput screening of a Rev-inhibiting arylidenediamide array” (Arqule, Inc., priority 1995, dated 1998):

Molecular target: Rev-RRE complexes (recombinant Rev protein, synthetic 32P-labelled RRE RNA) (Human immunodeficiency virus type 1 group M subtype B, UniProt P04618)
Experiment: Rev-RRE binding inhibition, nitrocellulose filter binding assay with scintillation counting
Parameters: species or system Human Immunodeficiency Virus (HIV)
Settings: array assayed at 6 ug/mL, non-specific competitor RNA
Experimental: The array was assayed in parallel at 6 ug/mL in reaction mixtures containing recombinant Rev protein, synthetic 32P-labelled RRE RNA, and a non-specific competitor RNA. The reaction is then filtered through nitrocellulose filters and washed with a low salt binding buffer. Rev-RRE complexes are retained in the filter while the unbound RRE filters through. Rev-RRE complexes retained in the filter are then quantified by scintillation counting. The percentage of inhibition is calculated according to the formula: […]
where CPM1 is the activity obtained in the presence of the drug and CPM0 is the average activity in the absence of the drug. […] Raising the criterion of interest to 90% inhibition of complex formation afforded a set of 55 compounds which were examined for common functionality. These 55 compounds and their inhibition values are listed in the following table, where A, B, and C are the structural diversity elements of the scaffold: […]

Rev-RRE complexes (recombinant Rev protein, synthetic 32P-labelled RRE RNA), sequence (P04618 whole entry, looked up, one chain of several): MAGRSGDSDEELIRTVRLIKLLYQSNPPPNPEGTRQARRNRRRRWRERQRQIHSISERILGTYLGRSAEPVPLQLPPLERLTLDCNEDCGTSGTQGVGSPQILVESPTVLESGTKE

Compound | % inh
O=C(NC(c1ccccc1)c1ccccc1)/C(=C/c1cccc(C(F)(F)F)c1)NC(=O)c1ccc2ccccc2c1 | 93%

Same assay, conditions: array assayed at 6 ug/mL, non-specific competitor RNA, listed as 2-napbthyl / α,α,α-trifluoro-m-toluyl / 1,2,3,4-tetrahydronaphth-1-yl

Compound | % inh
O=C(NC1CCCc2ccccc21)/C(=C/c1cccc(C(F)(F)F)c1)NC(=O)c1ccc2ccccc2c1 (stereo not shown) | 90%

Same assay, conditions: array assayed at 6 ug/mL, non-specific competitor RNA, read-out: % inh

Compound | inhibition at 6 µg/mL
O=C(NCC(c1ccccc1)c1ccccc1)/C(=C/c1cc(F)cc(F)c1)NC(=O)c1ccc(Cl)cc1Cl | 94%
O=C(NCC(O)c1ccccc1)/C(=C/c1ccc(Cl)cc1Cl)NC(=O)c1ccc2ccccc2c1 (stereo not shown) | 95%
O=C(NC1CCCc2ccccc21)/C(=C/c1ccc(OC(F)(F)F)cc1)NC(=O)c1ccc2ccccc2c1 (stereo not shown) | 94%
O=C(NC(c1ccccc1)c1ccccc1)/C(=C/c1cccc(Oc2ccccc2)c1)NC(=O)c1ccc(C(F)(F)F)cc1 | 94%
O=C(NC1CCc2ccccc21)/C(=C/c1ccc(C(F)(F)F)cc1)NC(=O)c1ccc2ccccc2c1 (stereo not shown) | 92%
O=C(Nc1cccnc1)/C(=C/c1ccccc1F)NC(=O)c1ccccc1 [phenyl / 2-fluorophenyl / 3-pyridinyl] | 91%
O=C(NC1CCCc2ccccc21)/C(=C/c1ccc(Cl)cc1)NC(=O)c1ccc(C(F)(F)F)cc1 (stereo not shown) | 92%
O=C(NCc1cccc2ccccc12)/C(=C/c1cccc(C(F)(F)F)c1)NC(=O)c1ccc2ccccc2c1 | 94%
Cc1ccc(CCNC(=O)/C(=C/c2cccc(Oc3ccccc3)c2)NC(=O)c2ccc(Cl)cc2Cl)cc1 | 95%
O=C(NCc1cccc2ccccc12)/C(=C/c1ccc(F)cc1F)NC(=O)c1ccc2ccccc2c1 | 93%
O=C(NC1CCCc2ccccc21)/C(=C/c1cccc(C(F)(F)F)c1)NC(=O)c1ccc2ccccc2c1 (stereo not shown) | 97%
O=C(NC1CCCc2ccccc21)/C(=C/c1ccc(C(F)(F)F)cc1)NC(=O)c1ccc2ccccc2c1 (stereo not shown) | 95%
O=C(NC1CCCc2ccccc21)/C(=C/c1ccc(C(F)(F)F)cc1)NC(=O)c1ccc(C(F)(F)F)cc1 (stereo not shown) | 94%
CCC(CC)NC(=O)/C(=C/c1cccc(C(F)(F)F)c1)NC(=O)c1ccc2ccccc2c1 | 93%
COc1cccc(/C=C(\NC(=O)c2ccc3ccccc3c2)C(=O)NCCc2ccccc2)c1 [2-naphthyl / m-anisyl / phenethyl] | 91%
COc1cccc(/C=C(\NC(=O)c2ccc3ccccc3c2)C(=O)NC(c2ccccc2)c2ccccc2)c1 [2-naphthyl / m-anisyl / diphenylmethyl] | 94%
Cc1ccc(C(=O)N/C(=C\c2ccc(F)cc2F)C(=O)NCC(O)c2ccccc2)cc1 (stereo not shown) | 96%
Cc1ccc(C(=O)N/C(=C\c2ccccc2Cl)C(=O)NCc2cccc3ccccc23)cc1 | 90%
O=C(NC1CCCc2ccccc21)/C(=C/c1ccc(-c2ccccc2)cc1)NC(=O)c1ccc(Cl)cc1Cl (stereo not shown) | 92%
Cc1ccc(CCNC(=O)/C(=C/c2ccc(-c3ccccc3)cc2)NC(=O)c2ccc(Cl)cc2Cl)cc1 | 94%
O=C(N/C(=C\c1cccc(C(F)(F)F)c1)C(=O)N1CCC(Cc2ccccc2)CC1)c1ccc2ccccc2c1 | 95%
O=C(NC1CCCCC1)/C(=C/c1ccccc1)NC(=O)c1ccc(Cl)cc1Cl [2,4-dichlorophenyl / phenyl / cyclohexyl] | 98%
Cc1ccc(CCNC(=O)/C(=C/c2cccc(C(F)(F)F)c2)NC(=O)c2ccc3ccccc3c2)cc1 | 96%
Cc1ccc(CCNC(=O)/C(=C/c2ccc(C(F)(F)F)cc2)NC(=O)c2ccc(C(F)(F)F)cc2)cc1 | 95%
O=C(N/C(=C\c1ccc(C(F)(F)F)cc1)C(=O)N1CCN(c2ccccc2)CC1)c1ccc(C(F)(F)F)cc1 | 91%

Compound | inhibition at 6 µg/mL
O=C(NCCc1ccccc1)/C(=C/c1ccc(-c2ccccc2)cc1)NC(=O)c1ccc(Cl)cc1Cl | 91%
O=C(N/C(=C\c1ccc(C(F)(F)F)cc1)C(=O)N1CCC(Cc2ccccc2)CC1)c1ccc2ccccc2c1 | 91%
O=C(NC(c1ccccc1)c1ccccc1)/C(=C/c1cccc(C(F)(F)F)c1)NC(=O)c1ccc2ccccc2c1 | 96%
O=C(NCc1ccco1)/C(=C/c1cccc(C(F)(F)F)c1)NC(=O)c1ccc2ccccc2c1 | 93%
O=C(NC(c1ccccc1)c1ccccc1)/C(=C/c1ccc(-c2ccccc2)cc1)NC(=O)c1ccc(Cl)cc1Cl | 96%
O=C(NCC(c1ccccc1)c1ccccc1)/C(=C/c1cccc(C(F)(F)F)c1)NC(=O)c1ccc(Cl)cc1Cl | 93%
O=C(NCC(c1ccccc1)c1ccccc1)/C(=C/c1cccc(C(F)(F)F)c1)NC(=O)c1ccc2ccccc2c1 | 93%
Cc1ccc(C(=O)N/C(=C\c2ccccc2Cl)C(=O)NCCCN2CCOCC2)cc1 | 95%
O=C(NC1CCc2ccccc21)/C(=C/c1ccc(-c2ccccc2)cc1)NC(=O)c1ccc(Cl)cc1Cl (stereo not shown) | 90%
O=C(NCc1ccccc1)/C(=C/c1ccc(-c2ccccc2)cc1)NC(=O)c1ccc(Cl)cc1Cl | 94%
O=C(N/C(=C\c1ccc(C(F)(F)F)cc1)C(=O)N1CCN(c2cccc(C(F)(F)F)c2)CC1)c1ccc(Cl)cc1Cl | 90%
O=C(NCC(c1ccccc1)c1ccccc1)/C(=C/c1ccc(F)cc1)NC(=O)c1ccc2ccccc2c1 | 90%
O=C(NC(c1ccccc1)c1ccccc1)/C(=C/c1cccc(C(F)(F)F)c1)NC(=O)c1ccc(Cl)cc1Cl | 96%
O=C(N/C(=C\c1cccc(Oc2ccccc2)c1)C(=O)N1CCN(c2ccccc2)CC1)c1ccc(C(F)(F)F)cc1 | 90%
O=C(NCc1cccc2ccccc12)/C(=C/c1ccc(-c2ccccc2)cc1)NC(=O)c1ccc(Cl)cc1Cl | 90%
O=C(NC(c1ccccc1)c1ccccc1)/C(=C/c1ccc(OC(F)(F)F)cc1)NC(=O)c1ccc2ccccc2c1 | 96%
CC(C)CC(CO)NC(=O)/C(=C/c1cccc(C(F)(F)F)c1)NC(=O)c1ccc2ccccc2c1 (stereo not shown) | 94%
O=C(NCCCc1ccccc1)/C(=C/c1ccc(C(F)(F)F)cc1)NC(=O)c1ccc2ccccc2c1 | 91%
O=C(NCc1cccc2ccccc12)/C(=C/c1cnc2ccccc2c1)NC(=O)c1ccc2ccccc2c1 | 96%
O=C(NC1CCc2ccccc21)/C(=C/c1cccc(C(F)(F)F)c1)NC(=O)c1ccc2ccccc2c1 (stereo not shown) | 92%
O=C(NC1CCCc2ccccc21)/C(=C/c1cccc(C(F)(F)F)c1)NC(=O)c1ccc(Cl)cc1Cl (stereo not shown) | 90%
O=C(NC(c1ccccc1)c1ccccc1)/C(=C/c1cccc(Cl)c1)NC(=O)c1ccc2ccccc2c1 | 92%
O=C(NC1CCCc2ccccc21)/C(=C/c1cccc(Oc2ccccc2)c1)NC(=O)c1ccc(C(F)(F)F)cc1 (stereo not shown) | 90%
O=C(NCC(c1ccccc1)c1ccccc1)/C(=C/c1ccc(C(F)(F)F)cc1)NC(=O)c1ccc2ccccc2c1 | 95%
O=C(Nc1cccnc1)/C(=C/c1ccc(Cl)cc1Cl)NC(=O)c1ccc2ccccc2c1 | 91%

Same assay, conditions: read-out: % inh, array assayed at 6 ug/mL, non-specific competitor RNA

Compound | inhibition at 6 µg/mL
O=C(NC(c1ccccc1)c1ccccc1)/C(=C/c1ccc(C(F)(F)F)cc1)NC(=O)c1ccc2ccccc2c1 | 96%
O=C(Nc1cccnc1)/C(=C/c1cc(F)cc(F)c1)NC(=O)c1ccc(Cl)cc1Cl | 91%
CC(CCc1ccccc1)NC(=O)/C(=C/c1ccc(C(F)(F)F)cc1)NC(=O)c1ccc2ccccc2c1 (stereo not shown) | 96%
